Data as given in US20200163984A1, “USE OF ISOVALERYL SPIRAMYCIN I, II AND/OR III IN MANUFACTURING MEDICAMENT FOR TREATING AND/OR PREVENTING TUMOR, AND MEDICAMENT” (SHENYANG FUYANG PHARMACEUTICAL TECHNOLOGY CO., LTD., priority 2017, published 2020).

What was measured:
[1] = system: transplanted tumor of human lymphoma cell U937; assay: U937 transplanted tumor in nude mice; conditions: for Tumor Volume (mm3) (d 1): d1
Method: (§1) U937 cells in a logarithmic growth phase were taken and subjected to a trypan blue exclusion experiment showing that the cell viability was more than 95%, then the cells were subjected to trypsinization, centrifugation, and supernatant removal. Then cell concentration was adjusted to 1×10^7/ml with matrigel, then each nude mouse was inoculated subcutaneously with 0.2 ml of cells at its right armpit and recorded as the first day of inoculation. When the tumor grows to be greater than or equal to 100 mm^3, the mice were randomly divided into 11 groups with 6 mice in each group: a model group, a cyclophosphamide group, isovaleryl spiramycin I groups with doses of 25, 50 and 100 mg/kg, isovaleryl spiramycin II groups with doses of 25, 50 and 100 mg/kg, and isovaleryl spiramycin III groups with doses of 25, 50 and 100 mg/kg. Each group was continuously administered intragastrically for 30 days with a dose of 20 ml/kg. The mice were sacrificed the next day after drug withdrawal and the indicators were tested. The long diameter and short diameter of the tumor, and the body weight of each mouse were recorded every 3 days from drug administration to nude mouse sacrifice.
(§2) The body weight of the nude mice and the long diameter (a) and short diameter (b) of the transplanted tumor were measured every 3 days, and the tumor volume (v), relative tumor volume (RTV) and relative tumor proliferation rate (T/C) are calculated respectively according to the following formulas, wherein V=a×b^2/2; RTV=V/V0 (V0 is the tumor volume before administration, V is the tumor volume before sacrifice), and T/C (%)=treatment group RTV/model control group RTV×100%.
(§3) Each mouse was weighed and sacrificed. After the tumor was completely stripped off from the body of the mouse, the non-tumor tissues such as blood stains and fat were removed to weigh the tumor and calculate the tumor growth inhibition rate. The average tumor weight of each group of mice is used as an indicator of efficacy. Tumor growth inhibition rate (%)=(1−the average tumor weight of the treatment group/the average tumor weight of the model group)×100%.

[2] = system: transplanted tumor of human cervical cancer cell HeLa; assay: HeLa transplanted tumor in nude mice; conditions: for Tumor Volume (mm3) (d 1): d1
Method: as §1, with “HeLa” for “U937”
as §2, §3

[3] = Thymus index and spleen index of Lewis lung cancer tumor-bearing mice; conditions: n = 6
Method: In the Lewis lung cancer model, the mice inoculated with the tumor were randomly divided into groups with 10 mice in each group the next day of inoculation. The groups included: a model control group, a positive drug cyclophosphamide control group (CTX, 30 mg/kg), isovaleryl spiramycin I groups with doses of 13, 26 and 52 mg/kg; isovaleryl spiramycin II groups with doses of 13, 26 and 52 mg/kg; isovaleryl spiramycin III groups with doses of 13, 26 and 52 mg/kg. Each group was continuously administered intragastrically for 15 days with a dose of 20 ml/kg.

[4] = U937, high dose (100 mg/kg in method) i.g. 30 days
[5] = U937, low dose (25 mg/kg in method) i.g. 30 days
[6] = U937, medium dose (50 mg/kg in method) i.g. 30 days
[7] = HeLa, high dose (100 mg/kg in method) i.g. 30 days
[8] = HeLa, low dose (25 mg/kg in method) i.g. 30 days
[9] = HeLa, medium dose (50 mg/kg in method) i.g. 30 days

- mouse weight compared with the model group ([1]; mouse, in vivo): no significant changes
- mouse weight compared with the model group ([2]; mouse, in vivo): no significant changes
SMILES: COC1C(OC(C)=O)CC(=O)OC(C)CC=CC=CC(OC2CCC(N(C)C)C(C)O2)C(C)CC(CC=O)C1OC1OC(C)C(OC2CC(C)(O)C(OC(=O)CC(C)C)C(C)O2)C(N(C)C)C1O (stereo not shown) [Isovaleryl spiramycin II, isovaleryl spiramycin II]
- Relative Tumor Proliferation Rate (T/C) [1, 4]: 46.09%
- tumor growth inhibition rate [1, 4]: 43.63%
- Relative Tumor Proliferation Rate (T/C) [1, 5]: 74.19%
- tumor growth inhibition rate [1, 5]: 25.61%
- tumor volume and relative tumor volume compared with the model group ([1]; U937, low, medium and high doses, P<0.05): significantly lower
- Relative Tumor Proliferation Rate (T/C) [1, 6]: 52.10%
- tumor growth inhibition rate [1, 6]: 35.44%
- Inhibition Rate (%) ([1]; U937 nude mice, 12.5 mg/kg): 25.61%
- Relative Tumor Proliferation Rate (T/C) ([1]; U937 nude mice, 12.5 mg/kg): 74.19%
- Relative Tumor Volume (RTV) ([1]; U937 nude mice, 12.5 mg/kg): 12.64 ± 5.00
- Tumor Weight ([1]; U937 nude mice, 12.5 mg/kg): 1.44 ± 0.64 g
- Tumor Volume (mm3) (d 1) ([1]; U937 nude mice, 12.5 mg/kg): 111.58 ± 23.26 mm3
- Tumor Volume (mm3) (d30) ([1]; U937 nude mice, 12.5 mg/kg): 1400.95 ± 558.82 mm3
- Inhibition Rate (%) ([1]; U937 nude mice, 25 mg/kg): 35.44%
- Relative Tumor Proliferation Rate (T/C) ([1]; U937 nude mice, 25 mg/kg): 52.10%
- Relative Tumor Volume (RTV) ([1]; U937 nude mice, 25 mg/kg): 8.88 ± 2.64
- Tumor Weight ([1]; U937 nude mice, 25 mg/kg): 1.25 ± 0.66 g
- Tumor Volume (mm3) (d 1) ([1]; U937 nude mice, 25 mg/kg): 120.21 ± 24.68 mm3
- Tumor Volume (mm3) (d30) ([1]; U937 nude mice, 25 mg/kg): 1117.59 ± 565.29 mm3
- Inhibition Rate (%) ([1]; U937 nude mice, 50 mg/kg): 43.63%
- Relative Tumor Proliferation Rate (T/C) ([1]; U937 nude mice, 50 mg/kg): 46.09%
- Relative Tumor Volume (RTV) ([1]; U937 nude mice, 50 mg/kg): 7.85 ± 3.27
- Tumor Weight ([1]; U937 nude mice, 50 mg/kg): 1.09 ± 0.62 g
- Tumor Volume (mm3) (d 1) ([1]; U937 nude mice, 50 mg/kg): 111.50 ± 7.03 mm3
- Tumor Volume (mm3) (d30) ([1]; U937 nude mice, 50 mg/kg): 885.75 ± 418.53 mm3
- Body Weight (g) (d1) ([1]; mouse, in vivo, 12.5 mg/kg): 21.10 ± 0.64 g
- Body Weight (g) (d30) ([1]; mouse, in vivo, 12.5 mg/kg): 20.97 ± 0.74 g
- Body Weight (g) (d1) ([1]; mouse, in vivo, 25 mg/kg): 21.05 ± 0.30 g
- Body Weight (g) (d30) ([1]; mouse, in vivo, 25 mg/kg): 21.03 ± 0.632 g
- Body Weight (g) (d1) ([1]; mouse, in vivo, 50 mg/kg): 20.80 ± 0.51 g
- Body Weight (g) (d30) ([1]; mouse, in vivo, 50 mg/kg): 21.22 ± 0.51 g
- Inhibition Rate (%) ([2]; HeLa nude mice, 12.5 mg/kg): 30.67%
- Relative Tumor Proliferation Rate (T/C) ([2]; HeLa nude mice, 12.5 mg/kg): 68.55%
- Relative Tumor Volume (RTV) ([2]; HeLa nude mice, 12.5 mg/kg): 11.36 ± 2.90
- Tumor Weight ([2]; HeLa nude mice, 12.5 mg/kg): 1.34 ± 0.60 g
- Tumor Volume (mm3) (d 1) ([2]; HeLa nude mice, 12.5 mg/kg): 115.41 ± 23.27 mm3
- Tumor Volume (mm3) (d30) ([2]; HeLa nude mice, 12.5 mg/kg): 1301.28 ± 391.77 mm3
- Inhibition Rate (%) ([2]; HeLa nude mice, 25 mg/kg): 42.90%
- Relative Tumor Proliferation Rate (T/C) ([2]; HeLa nude mice, 25 mg/kg): 56.07%
- Relative Tumor Volume (RTV) ([2]; HeLa nude mice, 25 mg/kg): 9.30 ± 1.74
- Tumor Weight ([2]; HeLa nude mice, 25 mg/kg): 1.10 ± 0.62 g
- Tumor Volume (mm3) (d 1) ([2]; HeLa nude mice, 25 mg/kg): 125.04 ± 20.71 mm3
- Tumor Volume (mm3) (d30) ([2]; HeLa nude mice, 25 mg/kg): 1184.42 ± 369.49 mm3
- Inhibition Rate (%) ([2]; HeLa nude mice, 50 mg/kg): 43.30%
- Relative Tumor Proliferation Rate (T/C) ([2]; HeLa nude mice, 50 mg/kg): 45.96%
- Relative Tumor Volume (RTV) ([2]; HeLa nude mice, 50 mg/kg): 7.62 ± 0.85
- Tumor Weight ([2]; HeLa nude mice, 50 mg/kg): 1.10 ± 0.61 g
- Tumor Volume (mm3) (d 1) ([2]; HeLa nude mice, 50 mg/kg): 111.84 ± 4.83 mm3
- Tumor Volume (mm3) (d30) ([2]; HeLa nude mice, 50 mg/kg): 851.58 ± 93.66 mm3
- Relative Tumor Proliferation Rate (T/C) [2, 7]: 43.30%
- tumor growth inhibition rate [2, 7]: 43.30%
- Relative Tumor Proliferation Rate (T/C) [2, 8]: 30.67%
- tumor growth inhibition rate [2, 8]: 30.67%
- tumor volume and relative tumor volume compared with the model group ([2]; HeLa, low, medium and high doses, P<0.05): significantly lower
- Relative Tumor Proliferation Rate (T/C) [2, 9]: 42.90%
- tumor growth inhibition rate [2, 9]: 42.90%
- Body Weight (g) (d1) ([2]; mouse, in vivo, 12.5 mg/kg): 20.92 ± 0.46 g
- Body Weight (g) (d30) ([2]; mouse, in vivo, 12.5 mg/kg): 21.16 ± 0.51 g
- Body Weight (g) (d1) ([2]; mouse, in vivo, 25 mg/kg): 20.87 ± 0.34 g
- Body Weight (g) (d30) ([2]; mouse, in vivo, 25 mg/kg): 21.25 ± 0.55 g
- Body Weight (g) (d1) ([2]; mouse, in vivo, 50 mg/kg): 20.77 ± 0.43 g
- Body Weight (g) (d30) ([2]; mouse, in vivo, 50 mg/kg): 21.09 ± 0.36 g
- Spleen Index (%) ([3]; dose 13 mg/kg): 0.75 ± 0.24%
- Thymus Index (%) ([3]; dose 13 mg/kg): 0.12 ± 0.08%
- Spleen Index (%) ([3]; dose 26 mg/kg): 0.68 ± 0.21%
- Thymus Index (%) ([3]; dose 26 mg/kg): 0.14 ± 0.02%
- Spleen Index (%) ([3]; dose 52 mg/kg): 0.66 ± 0.17%
- Thymus Index (%) ([3]; dose 52 mg/kg): 0.15 ± 0.09%
